Reference: article PMC9029746, “Discovery of Azaindolin-2-One as a Dual Inhibitor of GSK3β and Tau Aggregation with Potential Neuroprotective Activity” (Pharmaceuticals, 2022)
Entries after “also recorded” stand apart in the source; their conditions may differ. Read-outs that look alike come from different tables or passages of the source. Values belong to the compound of their own block, whether it stands above or below them.

What was measured:
GSK3β = settings: cited from earlier work
human recombinant GSK3β = biological target: T1, human recombinant GSK3β (Homo sapiens, UniProt P49841); experiment: GSK3β inhibition assay (GSK3β Kinase Enzyme System, ADP-Glo Kinase Assay); format: biochemical; settings: for inhibition at 10 µM: read-out: percentage inhibition of GSK3β
T1 construct: purchased Promega Corporation, Madison, WI, USA (GSK3β Kinase Enzyme System)
Method: Screening of GSK3β inhibition activity for our new library was conducted using the […] luminescence assay to determine how much ATP is reduced after a kinase reaction.
According to the manufacturer’s protocol, the assay was conducted using GSK3β Kinase Enzyme System and ADP-Glo Kinase Assay (Promega Corporation, Madison, WI, USA) in 384-well plates. The kinase reaction was performed at room temperature using 2 ng/μL of human recombinant GSK3β, 0.2 μg/μL of GSK3 substrate ([…] (pS) EDEEE; amino acids 636–661), and 25 μM ATP in 4X kinase buffer containing 50 μM DTT. The compounds were added to enzyme solution and incubated for 2 h at room temperature. Then, kinase activity was quantified using the ADP-Glo Kinase Assay as previously described.

[1] = biological target: T2, tau 2N4R isoform carrying P301L mutation (Homo sapiens, UniProt P10636, P618L); experiment: Tau aggregation inhibition in a cell model of tauopathy (Tau Aggregation Assay Kit, HeLa cells); format: cell-based; settings: for anti-tau aggregation effect: Hela cells, seed+; for inhibitory activity against tau aggregation: 1, 3, 10, and 30 µM overall
T2 construct: host or cells: HeLa cells
Method: Aggregation of Tau is observed using Hela cells transduced with the expression vector of tau 2N4R isoform carrying P301L mutation and fibrils of tau protein with P301L mutation as seed. We tested the anti-aggregation effects of (E)-2f and 3a at four different concentrations, namely (1 µM, 3 µM, 10 µM, 30 µM), the measurements combined with negative seed (negative control = normal aggregation level), and positive seed (positive control = AD aggregation levels). In other words, seed— and + indicate the absence and presence of fibrils of tau protein with P301L mutation as seed, respectively.
Figure 9 Anti-tau aggregation activity of compounds (E)-2f and 3a at 1, 3, 10, and 30 µM concentrations. (A) Tau proteins were stained with green fluorescence in HeLa cells transfected with the expression vector of tau 2N4R isoform carrying P301L mutation and incubated with the compounds. Microscopic observation was performed, and photos were shown on a 100 µm scale. Seed negative (seed−) and seed positive (seed+) indicate the absence and presence of fibrils of tau protein with P301L mutation, respectively. (B) Relative green spots per area (%) after exposure of Hela cells to compounds (E)-2f and 3a are compared to seed positive (seed+ = 100%). ImageJ counted more than 100 spots in the same area in each sample. *: denotes significant difference from control (seed+) at p < 0.05, **: denotes significant difference from control (seed+) at p < 0.01.
According to the manufacturer’s protocol, the assay was performed using Tau Aggregation Assay Kit (Cosmo Bio, Tokyo, Japan [catalog number: TAU01]). Briefly, HeLa cells were transfected with pCMV-Tau(2N4R)-P301L (20 ng) using Lipofectamine 3000 (ThermoFisher Scientific, Waltham, MA, USA) and treated with F-Tau (RD)-P301L (fibrils of tau protein with P301L mutation as seed, included in the assay kit). Drugs were added after 6 h, and the cells were incubated for 1 day. Next, immunostaining was performed basically as previously described. Tau proteins were stained with green fluorescence. In this staining, a TAU antibody (Proteintech, Rosemont, IL, USA [catalog number: 10274-1-AP]) was used as the first antibody, and goat anti-rabbit IgG (H + L) highly cross-adsorbed secondary antibody, Alexa Fluor 488 ThermoFisher Scientific) was used as the second antibody. An All-in-One Fluorescence Microscope BIOREVO BZ-9000 (Keyence, Osaka, Japan) was used as the microscope. ImageJ counted more than 100 spots in the same area in each sample [40, 41].

total tau = experiment: Western blot analysis of total tau in Hela cells; format: cell-based, human; settings: 10 and 30 µM, 24 h, GAPDH normalization
Method: Western blot analysis was then used to confirm the amount of the total tau in Hela cells used for microscopic observation. The lysate of Hela cells, after incubation with compounds (E)-2f and 3a at 10 and 30 µM concentrations, were analyzed by immunoblotting using the same anti-Tau antibody (Figure S42). ImageJ was used to quantify the total tau at each concentration and compared to the total tau level of Hela cells with positive seed (seed+) alone as a control.
Figure 10 Effect of compounds (E)-2f and 3a on Tau levels. HeLa cells transfected with the expression vector of tau 2N4R isoform carrying P301L mutation and incubated with compounds (E)-2f and 3a at 10 and 30 µM concentrations for 24 h. Then Hela cells were lysed, and the lysates were analyzed by Western blotting. The relative amount of total tau expressed in the total cell lysate of Hela cells of each lane was quantified by ImageJ. The total tau level of Hela cells with positive seed (seed+) alone was calculated from total tau after GAPDH normalization and is presented as Control (1.00).
Western blot analysis was performed by lysing Hela cells in PBS/Laemmli sample buffer (1:1) as described previously. […] Chemiluminescence detected immunoreactivity using ImmunoStar LD (FUJIFILM-Wako, Osaka, Japan).

A375 = experiment: MTT assay, cytotoxicity; format: cell-based; settings: Homo sapiens, A-375, 72 h; read-out: IC50 (µM) after 72 h Drug Treatment, A375
Method: (§1) The human cervical carcinoma cell line HeLa, obtained from the American Type Culture Collection (ATCC), was cultured in Dulbecco’s modified Eagle’s medium (DMEM) supplemented with 5% heat-inactivated fetal bovine serum (FBS). The human glioblastoma cell line U251 (obtained from ATCC), colon carcinoma cell line HCT116 [provided by the RIKEN BRC through the National Bio-Resource Project of the MEXT/AMED, Japan (RCB2979)], and human melanoma cell line A375, obtained from ATCC, were cultured in DMEM supplemented with 10% heat-inactivated FBS. The human chronic myelogenous leukemia cell line K562 and human peripheral blood mononuclear cells (PBMC), both cells obtained from ATCC, were cultured in RPMI 1640 supplemented with 10% heat-inactivated FBS described previously.
(§2) Cells were seeded in a 24-well plate, and the compounds were added. After incubation for 3 days, a solution (1.1 mg/mL) of 3-(4,5-dimethylthiazol-2-yl)-2,5-diphenyl-2H-tetrazolium bromide (MTT, from DOJINDO Laboratories, Kumamoto, Japan) was added, and MTT assay was performed as previously described.

HCT-116 = experiment: MTT assay, cytotoxicity; format: cell-based; settings: Homo sapiens, HCT-116, 72 h; read-out: IC50 (µM) after 72 h Drug Treatment, HCT-116
Method: as §1, §2

K562 = experiment: MTT assay, cytotoxicity; format: cell-based; settings: Homo sapiens, K562, 72 h; read-out: IC50 (µM) after 72 h Drug Treatment, K562
Method: as §1, §2

U251 = experiment: MTT assay, cytotoxicity; format: cell-based; settings: Homo sapiens, U-251, 72 h; read-out: IC50 (µM) after 72 h Drug Treatment, U251
Method: as §1, §2

PBMC = experiment: MTT assay, cytotoxicity on normal blood cells; format: cell-based; settings: Homo sapiens, 72 h, read-out: IC50 (µM) after 72 h Drug Treatment, PBMC
Method: as §1, §2

tau fibrils = biological target: tau fibrils; design: method as in PMID 17761424; settings: cited from earlier work
alpha-synuclein (α-syn) = biological target: alpha-synuclein (α-syn); design: method as in PMID 17761424; settings: cited from earlier work
beta-amyloid (Aβ) = biological target: beta-amyloid (Aβ); design: method as in PMID 17761424; settings: cited from earlier work

T1 sequence (P49841 whole entry): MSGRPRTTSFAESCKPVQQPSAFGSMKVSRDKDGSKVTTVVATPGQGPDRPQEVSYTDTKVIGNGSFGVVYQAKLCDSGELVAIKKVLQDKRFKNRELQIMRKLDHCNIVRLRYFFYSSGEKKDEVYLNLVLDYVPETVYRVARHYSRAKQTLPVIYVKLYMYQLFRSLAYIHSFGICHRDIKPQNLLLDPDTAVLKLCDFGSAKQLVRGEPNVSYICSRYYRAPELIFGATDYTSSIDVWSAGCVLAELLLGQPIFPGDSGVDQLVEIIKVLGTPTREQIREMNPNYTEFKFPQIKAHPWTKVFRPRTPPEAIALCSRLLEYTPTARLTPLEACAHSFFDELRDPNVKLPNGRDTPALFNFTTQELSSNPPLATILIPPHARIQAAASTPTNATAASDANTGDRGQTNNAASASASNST
T2 sequence (P10636 1-441 isoform P10636-8 P301L): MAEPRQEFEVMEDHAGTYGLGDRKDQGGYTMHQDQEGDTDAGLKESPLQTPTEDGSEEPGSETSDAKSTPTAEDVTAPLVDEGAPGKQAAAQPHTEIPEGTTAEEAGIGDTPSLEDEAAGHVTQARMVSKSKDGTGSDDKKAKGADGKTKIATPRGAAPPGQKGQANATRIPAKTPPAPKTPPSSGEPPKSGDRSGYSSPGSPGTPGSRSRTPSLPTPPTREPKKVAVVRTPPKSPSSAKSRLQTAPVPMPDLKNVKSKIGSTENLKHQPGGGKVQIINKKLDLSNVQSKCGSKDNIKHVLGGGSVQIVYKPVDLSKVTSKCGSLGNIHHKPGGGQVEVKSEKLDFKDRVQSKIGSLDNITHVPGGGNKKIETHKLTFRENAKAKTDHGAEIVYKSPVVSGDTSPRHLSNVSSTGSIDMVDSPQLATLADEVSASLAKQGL

Compound: Clc1cc(-c2c[nH]c3ncccc23)cc(NC2CCCCC2)n1 [Native ligand]
Ki (GSK3β): 0.058 µM

Compound: COc1ccc2c(c1)c(/C=C1\SC(=O)NC1=O)cn2C [IV]
IC50 (GSK3β): 0.89 µM

Compound: O=C1NC(=S)S/C1=C\c1cccc(-c2ccc3c(c2)OCO3)n1 [V]
IC50 (GSK3β): 1.6 µM

Compound: O=C1Nc2ncccc2/C1=C\c1ccncc1 [(E)-3d]
IC50 (human recombinant GSK3β; read-out: IC50 (µM) GSK3β): 5.9 µM

Compound: CN(C)c1ccc(/C=C2\C(=O)Nc3ncccc32)cc1 [(Z)-3a]
IC50 (human recombinant GSK3β; read-out: IC50 (µM) GSK3β): 1.9 µM

Compound: CN(C)c1ccc(/C=C2/C(=O)Nc3ccccc32)cc1 [VII]
Ki (tau fibrils): 95 nM
Ki (alpha-synuclein (α-syn)): 490 nM
Ki (beta-amyloid (Aβ)): 140 nM

Compound: Cn1cc(-c2[nH][nH]c(=O)c2-c2cn(C)c3ccccc23)c2ccccc21 [III]
IC50 (GSK3β; in vitro): 0.034 µM

Compound: CCN(CC)c1ccc(/C=C2/C(=O)Nc3ncccc32)cc1 [(E)-3b]
IC50 (human recombinant GSK3β; read-out: IC50 (µM) GSK3β): 3 µM

Compound: CN(C)c1ccc(C=C2C(=O)Nc3ncccc32)cc1 (mixture of isomers) [Compound 3a, (E/Z)-3-(4-(dimethylamino)benzylidene)-1,3-dihydro-2H-pyrrolo [2,3-b]pyridin-2-one]
anti-tau aggregation effect ([1]; 30 µM): completely protected Hela cells from tau aggregates
inhibitory activity against tau aggregation [1]: concentration-dependent inhibitory activity
total tau level compared to Hela cells with seed+ alone (total tau): little or no difference; also recorded: minimal effect
IC50 (A375): > 100 µM
IC50 (HCT-116): 9.8 µM
IC50 (K562): 4.7 µM
IC50 (U251): 10.3 µM
IC50 (PBMC): 94.5 µM

Compound: CCN(CC)c1ccc(/C=C2\C(=O)Nc3ncccc32)cc1 [(Z)-3b]
IC50 (human recombinant GSK3β; read-out: IC50 (µM) GSK3β): 3 µM

Compound: O=C1Nc2ccccc2/C1=C\c1ccccn1 [(E)-2a, (E)-3-(pyridin-2-ylmethylene)indolin-2-one]
IC50 (human recombinant GSK3β): > 10 µM
IC50 (GSK3β): 0.00416 µM

Further lines, with some results ahead:

IC50 (human recombinant GSK3β; read-out: IC50 (µM) GSK3β): 5.9 µM
Compound: O=C1Nc2ncccc2/C1=C/c1ccncc1 [(Z)-3d]

inhibition at 10 µM (human recombinant GSK3β): 76.4%
IC50 (human recombinant GSK3β; read-out: IC50 (µM) GSK3β): 1.7 µM
anti-tau aggregation effect ([1]; 1 µM): no efficacy
anti-tau aggregation effect ([1]; 3 µM): moderate efficacy
anti-tau aggregation effect ([1]; 10 µM): significant anti-aggregation effect
Compound: O=C1Nc2ncccc2/C1=C\c1ccccn1 [(E)-2f, (E)-3-(pyridin-2-ylmethylene)-1,3-dihydro-2H-pyrrolo [2,3-b]pyridin-2-one]
anti-tau aggregation effect ([1]; 30 µM): completely protected Hela cells from tau aggregates
inhibitory activity against tau aggregation [1]: pronounced tau anti-aggregation effect; also recorded: concentration-dependent inhibitory activity
total tau level compared to Hela cells with seed+ alone (total tau): little or no difference; also recorded: minimal effect
IC50 (A375): 14 µM
IC50 (HCT-116): 12.8 µM
IC50 (K562): 13.8 µM
IC50 (U251): 28.2 µM
IC50 (PBMC): > 300 µM

inhibition at 10 µM (human recombinant GSK3β): 45%
IC50 (human recombinant GSK3β; read-out: IC50 (µM) GSK3β): > 10 µM
Compound: O=C1Nc2cc(Cl)ccc2/C1=C\c1ccccn1 [(E)-2c, (E)-6-chloro-3-(pyridin-2-ylmethylene)indolin-2-one]

inhibition at 10 µM (human recombinant GSK3β): < 30%
IC50 (human recombinant GSK3β; read-out: IC50 (µM) GSK3β): > 10 µM
Compound: O=C1Nc2cc(F)ccc2/C1=C\c1ccccn1 [(E)-2e, (E)-6-fluoro-3-(pyridin-2-ylmethylene)indolin-2-one]

IC50 (human recombinant GSK3β; read-out: IC50 (µM) GSK3β): > 10 µM
Compound: O=C1Nc2ccc(Cl)cc2/C1=C\c1ccccn1 [(E)-2b, (E)-5-chloro-3-(pyridin-2-ylmethylene)indolin-2-one]

IC50 (human recombinant GSK3β; read-out: IC50 (µM) GSK3β): 3.2 µM
Compound: CN(C)c1ccnc(/C=C2/C(=O)Nc3ncccc32)c1 [(E)-3c]

inhibition at 10 µM (human recombinant GSK3β): < 30%
IC50 (human recombinant GSK3β; read-out: IC50 (µM) GSK3β): > 10 µM
Compound: O=C1Nc2ccc(F)cc2/C1=C\c1ccccn1 [(E)-2d, (E)-5-fluoro-3-(pyridin-2-ylmethylene)indolin-2-one]
